Results as given in patent publication US8629251B2, “Specific detection and quantification of phosphatidic acid using an Arabidopsis trigalactosyldiacylglycerol-4 (TGD4) protein” (Board of Trustees of Michigan State University, priority 2008, dated 2014).

Target: Arabidopsis TGD2, DsRed fusion of the 25-mer minimal domain (residues 201-225, SEQ ID NO:12), K221A (Arabidopsis thaliana, UniProt Q9LTR2, K221A)
Assay: Liposome-association assay, point mutant K221A of the minimal domain
Assay type: binding
Conditions: 100% PA liposomes, FIG. 4C
Procedure: Some reports have identified that TGD2 PA-binding regions involve basic amino acids and/or tryptophan residues (10). […] Based on sequence similarity of TGD2 to its closely related homologs in plants and green algae, several charged and/or conserved amino acids were picked as potential interesting residues in the 25-mer minimal domain for possibly mediating interactions with PA. An alanine screen was then performed to evaluate these residues within a minimal PA binding region of TGD2 (i.e., for example, SEQ ID NO:12). Point mutations were generated in the 25-mer minimal domain and fused with DsRed to test PA binding by liposome-association assay using 100% PA liposomes.
The liposome association assay was performed as previously reported. (31). […]
Liposomes (200 μg) were mixed with purified DsRed-TGD2 fusion protein and TBS to make a final 100 μL solution. […] The liposome pellet mixed with sample buffer was analyzed by SDS-PAGE (28). […]
The protein band was visualized by chemiluminescent detection kit from Sigma. The autoradiography film was scanned, distinct protein bands were quantified using computer software Multi Gauge V3.0 (Fujifilm USA, Valhalla, N.Y.) and resulted data were plotted and analyzed by OriginPro8 (Origin lab corporation, Northampton, Mass.).

Arabidopsis TGD2, DsRed fusion of the 25-mer minimal domain (residues 201-225, SEQ ID NO:12), K221A, sequence (Q9LTR2 201-225 K221A): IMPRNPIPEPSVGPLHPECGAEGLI

## CCCCCCCC/C=C\CCCCCCCC(=O)OC[C@H](COP(=O)(O)O)OC(=O)CCCCCCC/C=C\CCCCCCCC [PA, phosphatidic acid]
  PA binding: significantly reduced the amount of interaction with PA-liposomes
